In publication PMC10009787 (ACS Medicinal Chemistry Letters, 2023):
Where two headings read alike, the source gives them in different places.

Tests used:
[1] = biological target: LCK (Homo sapiens, UniProt P06239); test: SelectScreen kinase profiling; assay type: biochemical; conditions: average of duplicate
[2] = biological target: BLK (Homo sapiens, UniProt P51451); test: SelectScreen kinase profiling / Z′-Lyte kinase assay
[3] = biological target: HCK (Homo sapiens, UniProt P08631); test: as above
HCK, sequence (P08631 whole entry): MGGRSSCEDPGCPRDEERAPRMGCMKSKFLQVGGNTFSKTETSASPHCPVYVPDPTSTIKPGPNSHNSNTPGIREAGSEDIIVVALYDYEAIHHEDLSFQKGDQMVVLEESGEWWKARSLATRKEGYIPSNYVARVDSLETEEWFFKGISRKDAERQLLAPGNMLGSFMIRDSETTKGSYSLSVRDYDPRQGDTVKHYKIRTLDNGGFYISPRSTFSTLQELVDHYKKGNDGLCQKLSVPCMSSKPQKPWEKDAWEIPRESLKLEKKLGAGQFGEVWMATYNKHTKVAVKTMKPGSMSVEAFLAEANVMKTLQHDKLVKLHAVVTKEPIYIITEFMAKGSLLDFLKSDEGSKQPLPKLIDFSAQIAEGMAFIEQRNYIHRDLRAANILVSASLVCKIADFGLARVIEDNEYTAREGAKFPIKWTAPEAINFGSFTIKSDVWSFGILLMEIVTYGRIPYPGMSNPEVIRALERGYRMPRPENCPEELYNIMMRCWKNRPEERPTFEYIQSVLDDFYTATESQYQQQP

[4] = biological target: T1, BTK (Homo sapiens, UniProt Q06187); test: AssayQuant kinact/Ki profiling, PhosphoSens CSox-based kinetic assay; assay type: biochemical; set-up: purchased ThermoFisher / Life Technologies SelectScreen PV3363; conditions: 0.6 nM enzyme, 1000 µM ATP, one step fit
T1 sequence (Q06187 whole entry): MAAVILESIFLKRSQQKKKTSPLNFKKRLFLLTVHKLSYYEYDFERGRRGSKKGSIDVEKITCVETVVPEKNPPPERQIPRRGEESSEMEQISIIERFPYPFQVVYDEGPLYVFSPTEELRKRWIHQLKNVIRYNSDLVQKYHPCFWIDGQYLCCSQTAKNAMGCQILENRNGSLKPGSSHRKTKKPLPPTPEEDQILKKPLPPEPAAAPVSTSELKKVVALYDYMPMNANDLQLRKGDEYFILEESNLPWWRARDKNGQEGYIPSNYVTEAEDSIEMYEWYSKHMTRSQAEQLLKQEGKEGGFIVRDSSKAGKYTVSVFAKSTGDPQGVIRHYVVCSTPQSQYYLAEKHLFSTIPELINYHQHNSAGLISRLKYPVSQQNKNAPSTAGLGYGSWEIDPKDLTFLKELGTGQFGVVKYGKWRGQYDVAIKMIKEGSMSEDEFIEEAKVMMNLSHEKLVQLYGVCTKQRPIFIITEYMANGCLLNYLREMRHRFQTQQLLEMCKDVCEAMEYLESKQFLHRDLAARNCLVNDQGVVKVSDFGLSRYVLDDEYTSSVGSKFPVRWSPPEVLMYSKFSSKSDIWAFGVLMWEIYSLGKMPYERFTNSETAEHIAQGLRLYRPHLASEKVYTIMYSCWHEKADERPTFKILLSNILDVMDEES

[5] = biological target: EGFR (ErbB1) d746-750 (Homo sapiens, UniProt P00533, DEL746-750); test: SelectScreen kinase profiling; assay type: biochemical; conditions: average of duplicate
[6] = biological target: FLT4 (VEGFR3) (Homo sapiens, UniProt P35916); test: SelectScreen kinase profiling; assay type: biochemical; conditions: average of duplicate
FLT4 (VEGFR3), sequence (P35916 25-1363): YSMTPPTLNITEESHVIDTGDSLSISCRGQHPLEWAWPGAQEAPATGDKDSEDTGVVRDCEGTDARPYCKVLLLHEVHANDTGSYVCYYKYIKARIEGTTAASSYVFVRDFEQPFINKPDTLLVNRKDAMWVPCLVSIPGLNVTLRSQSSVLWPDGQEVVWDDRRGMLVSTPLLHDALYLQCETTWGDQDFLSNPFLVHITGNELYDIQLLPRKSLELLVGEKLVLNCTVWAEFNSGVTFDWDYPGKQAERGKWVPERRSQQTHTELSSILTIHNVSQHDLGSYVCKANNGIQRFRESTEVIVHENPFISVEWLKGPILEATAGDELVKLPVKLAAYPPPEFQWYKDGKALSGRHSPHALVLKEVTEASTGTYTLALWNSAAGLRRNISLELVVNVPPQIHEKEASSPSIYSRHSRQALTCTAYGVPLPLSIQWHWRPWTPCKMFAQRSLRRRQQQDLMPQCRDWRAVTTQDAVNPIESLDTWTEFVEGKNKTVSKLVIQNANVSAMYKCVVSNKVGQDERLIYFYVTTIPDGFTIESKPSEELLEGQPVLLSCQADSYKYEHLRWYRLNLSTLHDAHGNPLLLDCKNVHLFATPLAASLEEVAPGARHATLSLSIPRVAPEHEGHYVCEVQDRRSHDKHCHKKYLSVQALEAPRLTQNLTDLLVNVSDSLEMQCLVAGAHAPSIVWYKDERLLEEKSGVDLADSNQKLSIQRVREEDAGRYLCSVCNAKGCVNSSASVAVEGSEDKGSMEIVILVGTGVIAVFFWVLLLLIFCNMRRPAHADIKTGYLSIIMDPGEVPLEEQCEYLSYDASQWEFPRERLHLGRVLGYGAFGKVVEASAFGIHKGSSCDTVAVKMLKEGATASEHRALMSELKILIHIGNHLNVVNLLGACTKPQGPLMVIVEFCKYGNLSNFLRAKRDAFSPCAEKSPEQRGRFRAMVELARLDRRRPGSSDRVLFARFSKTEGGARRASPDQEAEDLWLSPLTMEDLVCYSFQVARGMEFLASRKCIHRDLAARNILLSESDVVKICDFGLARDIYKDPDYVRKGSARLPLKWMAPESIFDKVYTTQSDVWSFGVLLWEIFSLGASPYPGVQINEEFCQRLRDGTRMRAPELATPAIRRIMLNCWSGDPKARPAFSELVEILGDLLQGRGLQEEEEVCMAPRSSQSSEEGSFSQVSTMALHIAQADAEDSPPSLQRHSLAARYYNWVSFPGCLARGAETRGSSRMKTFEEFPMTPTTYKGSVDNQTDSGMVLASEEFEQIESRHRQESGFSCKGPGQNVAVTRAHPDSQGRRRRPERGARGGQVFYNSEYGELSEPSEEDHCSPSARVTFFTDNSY

[7] = biological target: T1, BTK; test: SelectScreen kinase profiling / Z′-Lyte kinase assay
[8] = biological target: TNK1 (Homo sapiens, UniProt Q13470); test: SelectScreen kinase profiling; assay type: biochemical; conditions: average of duplicate
[9] = biological target: ABL2 (Arg) (Homo sapiens, UniProt P42684); test: SelectScreen kinase profiling; assay type: biochemical; conditions: average of duplicate
[10] = tested on: ibrutinib’s top 50 targets; test: Single-point kinase profiling, count of kinases inhibited; assay type: biochemical; conditions: 1 μM, of 50 kinases
[11] = biological target: FGFR2 (Homo sapiens, UniProt P21802); test: SelectScreen kinase profiling; assay type: biochemical; conditions: average of duplicate
[12] = biological target: ABL1 (Homo sapiens, UniProt P00519); test: SelectScreen kinase profiling; assay type: biochemical; conditions: average of duplicate
[13] = biological target: FYN (Homo sapiens, UniProt P06241); test: SelectScreen kinase profiling; assay type: biochemical; conditions: average of duplicate
[14] = biological target: ERBB4 (HER4) (Homo sapiens, UniProt Q15303); test: SelectScreen kinase profiling; assay type: biochemical; conditions: average of duplicate
ERBB4 (HER4), sequence (Q15303 26-1308): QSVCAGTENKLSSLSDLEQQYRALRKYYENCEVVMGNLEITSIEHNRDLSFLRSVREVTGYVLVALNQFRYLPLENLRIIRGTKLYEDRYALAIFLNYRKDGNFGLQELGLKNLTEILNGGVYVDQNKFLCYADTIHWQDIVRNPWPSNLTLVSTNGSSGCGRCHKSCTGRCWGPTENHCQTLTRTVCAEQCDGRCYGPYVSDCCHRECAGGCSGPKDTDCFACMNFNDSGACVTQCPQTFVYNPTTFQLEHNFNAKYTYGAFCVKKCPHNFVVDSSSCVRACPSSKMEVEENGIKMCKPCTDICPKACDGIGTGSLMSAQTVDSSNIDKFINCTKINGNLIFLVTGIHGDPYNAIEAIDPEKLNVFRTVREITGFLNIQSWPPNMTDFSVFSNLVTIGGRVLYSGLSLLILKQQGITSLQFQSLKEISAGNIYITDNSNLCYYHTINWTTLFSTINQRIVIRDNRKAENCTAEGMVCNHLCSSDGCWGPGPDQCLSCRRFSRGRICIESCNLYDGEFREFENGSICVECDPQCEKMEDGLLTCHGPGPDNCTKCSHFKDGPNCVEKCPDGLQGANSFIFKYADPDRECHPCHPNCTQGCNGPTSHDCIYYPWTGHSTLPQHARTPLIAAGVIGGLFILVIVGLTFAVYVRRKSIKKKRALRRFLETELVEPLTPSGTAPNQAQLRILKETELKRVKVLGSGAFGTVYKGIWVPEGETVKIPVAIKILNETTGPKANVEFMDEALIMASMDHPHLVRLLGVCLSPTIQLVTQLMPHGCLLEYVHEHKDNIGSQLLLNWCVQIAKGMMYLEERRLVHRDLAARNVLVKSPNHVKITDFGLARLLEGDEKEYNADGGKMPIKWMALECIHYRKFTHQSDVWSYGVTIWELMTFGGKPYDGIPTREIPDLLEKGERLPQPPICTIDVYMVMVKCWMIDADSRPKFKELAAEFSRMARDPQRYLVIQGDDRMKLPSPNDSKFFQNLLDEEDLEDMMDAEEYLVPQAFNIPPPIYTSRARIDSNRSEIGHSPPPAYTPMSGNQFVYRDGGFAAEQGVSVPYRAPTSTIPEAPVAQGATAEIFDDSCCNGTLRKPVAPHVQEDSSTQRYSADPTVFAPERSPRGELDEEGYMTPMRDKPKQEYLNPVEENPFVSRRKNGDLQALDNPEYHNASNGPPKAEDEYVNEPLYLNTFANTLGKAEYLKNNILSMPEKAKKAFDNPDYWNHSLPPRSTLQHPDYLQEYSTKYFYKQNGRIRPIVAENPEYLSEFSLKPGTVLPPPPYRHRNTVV

[15] = biological target: SRMS (Srm) (Homo sapiens, UniProt Q9H3Y6); test: SelectScreen kinase profiling; assay type: biochemical; conditions: average of duplicate
SRMS (Srm), sequence (Q9H3Y6 whole entry): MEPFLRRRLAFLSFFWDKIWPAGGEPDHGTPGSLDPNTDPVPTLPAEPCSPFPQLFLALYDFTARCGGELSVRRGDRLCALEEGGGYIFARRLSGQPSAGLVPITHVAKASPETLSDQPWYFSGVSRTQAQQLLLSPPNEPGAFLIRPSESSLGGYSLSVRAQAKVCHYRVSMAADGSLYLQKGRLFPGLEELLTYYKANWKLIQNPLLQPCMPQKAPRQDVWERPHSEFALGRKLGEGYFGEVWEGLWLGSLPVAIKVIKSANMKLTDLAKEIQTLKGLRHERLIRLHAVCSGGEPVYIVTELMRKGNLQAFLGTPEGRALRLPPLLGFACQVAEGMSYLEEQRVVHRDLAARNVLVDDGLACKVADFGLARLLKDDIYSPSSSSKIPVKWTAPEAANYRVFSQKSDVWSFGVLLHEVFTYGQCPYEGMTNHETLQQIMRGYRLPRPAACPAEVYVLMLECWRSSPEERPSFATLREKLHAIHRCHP

[16] = biological target: YES1 (Homo sapiens, UniProt P07947); test: SelectScreen kinase profiling; assay type: biochemical; conditions: average of duplicate
[17] = biological target: FGFR1 (Homo sapiens, UniProt P11362); test: SelectScreen kinase profiling; assay type: biochemical; conditions: average of duplicate
[18] = biological target: EGFR (ErbB1) T790M (Homo sapiens, UniProt P00533, T790M); test: SelectScreen kinase profiling; assay type: biochemical; conditions: average of duplicate
[19] = biological target: EGFR (ErbB1) L858R (Homo sapiens, UniProt P00533, L858R); test: SelectScreen kinase profiling; assay type: biochemical; conditions: average of duplicate
[20] = biological target: ZAK (Homo sapiens, UniProt Q9NYL2); test: SelectScreen kinase profiling; assay type: biochemical; conditions: average of duplicate
[21] = biological target: FGFR3 (Homo sapiens, UniProt P22607); test: SelectScreen kinase profiling; assay type: biochemical; conditions: average of duplicate
[22] = BTK selectivity from IC50 values

BLK, sequence (P51451 whole entry): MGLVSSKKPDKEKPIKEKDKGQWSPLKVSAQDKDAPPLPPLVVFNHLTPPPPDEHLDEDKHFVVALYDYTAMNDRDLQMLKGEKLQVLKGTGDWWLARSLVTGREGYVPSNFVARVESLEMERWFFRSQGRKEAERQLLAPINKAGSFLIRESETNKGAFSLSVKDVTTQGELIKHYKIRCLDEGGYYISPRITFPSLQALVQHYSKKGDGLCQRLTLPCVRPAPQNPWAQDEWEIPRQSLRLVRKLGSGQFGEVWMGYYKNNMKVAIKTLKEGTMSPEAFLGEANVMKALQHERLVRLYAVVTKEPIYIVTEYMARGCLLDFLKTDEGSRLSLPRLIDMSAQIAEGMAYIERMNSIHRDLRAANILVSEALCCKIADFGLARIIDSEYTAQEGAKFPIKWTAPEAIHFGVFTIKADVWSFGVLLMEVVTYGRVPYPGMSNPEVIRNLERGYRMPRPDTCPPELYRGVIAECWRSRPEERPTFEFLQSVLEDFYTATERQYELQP

- inhibition at 1 µM [1]: 74%
- inhibition at 1 µM [2]: 100%
- IC50 ([2]; BLK IC50, Z′-Lyte, [ATP] Km app, 1 h incubation, duplicate): 35.6 nM
- Hillslope ([2]; BLK IC50 curve): 1.08
- BLK, BTK/Kinase [2, 22]: 2.8 x
- inhibition at 0.000495 µM ([2]; read-out: % Inhibition Point 1): -5%
- inhibition at 0.00152 µM ([2]; read-out: % Inhibition Point 1): 5%
- inhibition at 0.00457 µM ([2]; read-out: % Inhibition Point 1): 13%
- inhibition at 0.0137 µM ([2]; read-out: % Inhibition Point 1): 30%
- inhibition at 0.0412 µM ([2]; read-out: % Inhibition Point 1): 56%
- inhibition at 0.123 µM ([2]; read-out: % Inhibition Point 1): 77%
- inhibition at 0.37 µM ([2]; read-out: % Inhibition Point 1): 98%
- inhibition at 1.11 µM ([2]; read-out: % Inhibition Point 1): 101%
- inhibition at 3.33 µM ([2]; read-out: % Inhibition Point 1): 101%
- inhibition at 10 µM ([2]; read-out: % Inhibition Point 1): 101%
- inhibition at 0.000495 µM ([2]; read-out: % Inhibition Point 2): 8%
- inhibition at 0.00152 µM ([2]; read-out: % Inhibition Point 2): -3%
- inhibition at 0.00457 µM ([2]; read-out: % Inhibition Point 2): 7%
- inhibition at 0.0137 µM ([2]; read-out: % Inhibition Point 2): 24%
- inhibition at 0.0412 µM ([2]; read-out: % Inhibition Point 2): 55%
- inhibition at 0.123 µM ([2]; read-out: % Inhibition Point 2): 82%
- inhibition at 0.37 µM ([2]; read-out: % Inhibition Point 2): 96%
- inhibition at 1.11 µM ([2]; read-out: % Inhibition Point 2): 101%
- inhibition at 3.33 µM ([2]; read-out: % Inhibition Point 2): 102%
- inhibition at 10 µM ([2]; read-out: % Inhibition Point 2): 101%
- inhibition at 1 µM [3]: 19%
- HCK, BTK/Kinase [3, 22]: 180 x
- IC50 ([3]; HCK IC50, Z′-Lyte, [ATP] Km app, 1 h incubation, duplicate): 2310 nM
- Hillslope ([3]; HCK IC50 curve): 1.00
- inhibition at 0.000495 µM ([3]; read-out: % Inhibition Point 1): 10%
- inhibition at 0.00152 µM ([3]; read-out: % Inhibition Point 1): 9%
- inhibition at 0.00457 µM ([3]; read-out: % Inhibition Point 1): 10%
- inhibition at 0.0137 µM ([3]; read-out: % Inhibition Point 1): 6%
- inhibition at 0.0412 µM ([3]; read-out: % Inhibition Point 1): 9%
- inhibition at 0.123 µM ([3]; read-out: % Inhibition Point 1): 10%
- inhibition at 0.37 µM ([3]; read-out: % Inhibition Point 1): 19%
- inhibition at 1.11 µM ([3]; read-out: % Inhibition Point 1): 32%
- inhibition at 3.33 µM ([3]; read-out: % Inhibition Point 1): 48%
- inhibition at 10 µM ([3]; read-out: % Inhibition Point 1): 62%
- inhibition at 0.000495 µM ([3]; read-out: % Inhibition Point 2): 7%
- inhibition at 0.00152 µM ([3]; read-out: % Inhibition Point 2): 7%
- inhibition at 0.00457 µM ([3]; read-out: % Inhibition Point 2): 5%
- inhibition at 0.0137 µM ([3]; read-out: % Inhibition Point 2): 10%
- inhibition at 0.0412 µM ([3]; read-out: % Inhibition Point 2): 8%
- inhibition at 0.123 µM ([3]; read-out: % Inhibition Point 2): 15%
- inhibition at 0.37 µM ([3]; read-out: % Inhibition Point 2): 15%
- inhibition at 1.11 µM ([3]; read-out: % Inhibition Point 2): 29%
- inhibition at 3.33 µM ([3]; read-out: % Inhibition Point 2): 49%
- inhibition at 10 µM ([3]; read-out: % Inhibition Point 2): 65%
- kinact/KI [4]: 31000 M⁻¹ s⁻¹
- BTK kinact/Ki ([4]; listed as Dimethyl Analog): 31,600 M^-1S^-1
- inhibition at 1 µM [5]: 23%
- inhibition at 1 µM [6]: 5%
- inhibition at 1 µM [7]: 100%
- IC50 ([7]; BTK IC50, Z′-Lyte, [ATP] Km app, 1 h incubation, duplicate): 12.8 nM
- Hillslope ([7]; BTK IC50 curve): 1.25
- inhibition at 0.000495 µM ([7]; read-out: % Inhibition Point 1): -4%
- inhibition at 0.00152 µM ([7]; read-out: % Inhibition Point 1): 11%
- inhibition at 0.00457 µM ([7]; read-out: % Inhibition Point 1): 23%
- inhibition at 0.0137 µM ([7]; read-out: % Inhibition Point 1): 49%
- inhibition at 0.0412 µM ([7]; read-out: % Inhibition Point 1): 84%
- inhibition at 0.123 µM ([7]; read-out: % Inhibition Point 1): 97%
- inhibition at 0.37 µM ([7]; read-out: % Inhibition Point 1): 98%
- inhibition at 1.11 µM ([7]; read-out: % Inhibition Point 1): 100%
- inhibition at 3.33 µM ([7]; read-out: % Inhibition Point 1): 98%
- inhibition at 10 µM ([7]; read-out: % Inhibition Point 1): 98%
- inhibition at 0.000495 µM ([7]; read-out: % Inhibition Point 2): 1%
- inhibition at 0.00152 µM ([7]; read-out: % Inhibition Point 2): 5%
- inhibition at 0.00457 µM ([7]; read-out: % Inhibition Point 2): 22%
- inhibition at 0.0137 µM ([7]; read-out: % Inhibition Point 2): 49%
- inhibition at 0.0412 µM ([7]; read-out: % Inhibition Point 2): 80%
- inhibition at 0.123 µM ([7]; read-out: % Inhibition Point 2): 96%
- inhibition at 0.37 µM ([7]; read-out: % Inhibition Point 2): 98%
- inhibition at 1.11 µM ([7]; read-out: % Inhibition Point 2): 102%
- inhibition at 3.33 µM ([7]; read-out: % Inhibition Point 2): 97%
- inhibition at 10 µM ([7]; read-out: % Inhibition Point 2): 99%
- inhibition at 1 µM [8]: 2%
- inhibition at 1 µM [9]: 0%
- number of kinases inhibited to 10% of control [10]: 6
- number of kinases inhibited to 50% of control [10]: 9
- inhibition at 1 µM [11]: 8%
- inhibition at 1 µM [12]: 0%
- inhibition at 1 µM [13]: 19%
- inhibition at 1 µM [14]: 93%
- inhibition at 1 µM [15]: 22%
- inhibition at 1 µM [16]: 45%
- inhibition at 1 µM [17]: -1%
- inhibition at 1 µM [18]: 6%
- inhibition at 1 µM [19]: 2%
- inhibition at 1 µM [20]: 0%
- inhibition at 1 µM [21]: 3%
SMILES: C=CC(=O)N1CCCC(n2nc(-c3c(C)cc(Oc4ccccc4)cc3C)c3c(N)ncnc32)C1 (stereo in doubt) [Compound 3]
